Measured values: publication PMC10408569, “Recruitment of hexahydroquinoline as anticancer scaffold targeting inhibition of wild and mutants EGFR (EGFR^WT, EGFR^T790M, and EGFR^L858R)” (Journal of Enzyme Inhibition and Medicinal Chemistry, 2023)

Tests used:
HL-60(TB) = assay: NCI-60 anticancer screening (SRB); assay type: cell-based; conditions: Homo sapiens, leukemia, one dose 10 μM, read-out: Growth Inhibition Percentage (GI %)
RPMI-8226 = assay: NCI-60 anticancer screening (SRB); assay type: cell-based; conditions: Homo sapiens; RPMI-8226, leukemia; one dose 10 μM; read-out: Growth Inhibition Percentage (GI %)
A549/ATCC = assay: NCI-60 anticancer screening (SRB); assay type: cell-based; conditions: Homo sapiens; A549/ATCC, NSC lung cancer; one dose 10 μM; read-out: Growth Inhibition Percentage (GI %)
EKVX = assay: NCI-60 anticancer screening (SRB); assay type: cell-based; conditions: Homo sapiens, NSC lung cancer, one dose 10 μM, read-out: Growth Inhibition Percentage (GI %)
HOP-62 = assay: NCI-60 anticancer screening (SRB); assay type: cell-based; conditions: Homo sapiens; HOP-62, NSC lung cancer; one dose 10 μM; read-out: Growth Inhibition Percentage (GI %)
NCI-H322M = assay: NCI-60 anticancer screening (SRB); assay type: cell-based; conditions: Homo sapiens, NSC lung cancer, one dose 10 μM, read-out: Growth Inhibition Percentage (GI %)
NCI-H460 = assay: NCI-60 anticancer screening (SRB); assay type: cell-based; conditions: Homo sapiens; NCI-H460, NSC lung cancer; one dose 10 μM; read-out: Growth Inhibition Percentage (GI %)
NCI-H522 = assay: NCI-60 anticancer screening (SRB); assay type: cell-based; conditions: Homo sapiens; NCI-H522, NSC lung cancer; one dose 10 μM; read-out: Growth Inhibition Percentage (GI %)
HCC-2998 = assay: NCI-60 anticancer screening (SRB); assay type: cell-based; conditions: Homo sapiens; HCC-2998, colon cancer; one dose 10 μM; read-out: Growth Inhibition Percentage (GI %)
HCT-15 = assay: NCI-60 anticancer screening (SRB); assay type: cell-based; conditions: Homo sapiens; HCT-15, colon cancer; one dose 10 μM; read-out: Growth Inhibition Percentage (GI %)
HT29 = assay: NCI-60 anticancer screening (SRB); assay type: cell-based; conditions: Homo sapiens, HT-29; HT29, colon cancer; one dose 10 μM; read-out: Growth Inhibition Percentage (GI %)
KM 12 = assay: NCI-60 anticancer screening (SRB); assay type: cell-based; conditions: Homo sapiens, KM12; KM 12, colon cancer; one dose 10 μM; read-out: Growth Inhibition Percentage (GI %)
SF-268 = assay: NCI-60 anticancer screening (SRB); assay type: cell-based; conditions: Homo sapiens; SF-268, CNS cancer; one dose 10 μM; read-out: Growth Inhibition Percentage (GI %)
SF-295 = assay: NCI-60 anticancer screening (SRB); assay type: cell-based; conditions: Homo sapiens; SF-295, CNS cancer; one dose 10 μM; read-out: Growth Inhibition Percentage (GI %)
SF-539 = assay: NCI-60 anticancer screening (SRB); assay type: cell-based; conditions: Homo sapiens; SF-539, CNS cancer; one dose 10 μM; read-out: Growth Inhibition Percentage (GI %)
SNB-19 = assay: NCI-60 anticancer screening (SRB); assay type: cell-based; conditions: Homo sapiens; SNB-19, CNS cancer; one dose 10 μM; read-out: Growth Inhibition Percentage (GI %)
SNB-75 = assay: NCI-60 anticancer screening (SRB); assay type: cell-based; conditions: Homo sapiens; SNB-75, CNS cancer; one dose 10 μM; read-out: Growth Inhibition Percentage (GI %)
M14 = assay: NCI-60 anticancer screening (SRB); assay type: cell-based; conditions: Homo sapiens; M14, melanoma; one dose 10 μM; read-out: Growth Inhibition Percentage (GI %)
MDA-MB-435 = assay: NCI-60 anticancer screening (SRB); assay type: cell-based; conditions: Homo sapiens; MDA-MB-435, melanoma; one dose 10 μM; read-out: Growth Inhibition Percentage (GI %)
SK-MEL-28 = assay: NCI-60 anticancer screening (SRB); assay type: cell-based; conditions: Homo sapiens; SK-MEL-28, melanoma; one dose 10 μM; read-out: Growth Inhibition Percentage (GI %)
SK-MEL-5 = assay: NCI-60 anticancer screening (SRB); assay type: cell-based; conditions: Homo sapiens; SK-MEL-5, melanoma; one dose 10 μM; read-out: Growth Inhibition Percentage (GI %)
UACC-62 = assay: NCI-60 anticancer screening (SRB); assay type: cell-based; conditions: Homo sapiens; UACC-62, melanoma; one dose 10 μM; read-out: Growth Inhibition Percentage (GI %)
NCI/ADR-RES = assay: NCI-60 anticancer screening (SRB); assay type: cell-based; conditions: Homo sapiens, ovarian cancer, one dose 10 μM, read-out: Growth Inhibition Percentage (GI %)
786-0 = assay: NCI-60 anticancer screening (SRB); assay type: cell-based; conditions: Homo sapiens; 786-0, renal cancer; one dose 10 μM; read-out: Growth Inhibition Percentage (GI %)
CAKI-1 = assay: NCI-60 anticancer screening (SRB); assay type: cell-based; conditions: Homo sapiens; CAKI-1, renal cancer; one dose 10 μM; read-out: Growth Inhibition Percentage (GI %)
RXF 393 = assay: NCI-60 anticancer screening (SRB); assay type: cell-based; conditions: Homo sapiens; RXF 393, renal cancer; one dose 10 μM; read-out: Growth Inhibition Percentage (GI %)
SN 12C = assay: NCI-60 anticancer screening (SRB); assay type: cell-based; conditions: Homo sapiens, SN12C; SN 12C, renal cancer; one dose 10 μM; read-out: Growth Inhibition Percentage (GI %)
TK-10 = assay: NCI-60 anticancer screening (SRB); assay type: cell-based; conditions: Homo sapiens; TK-10, renal cancer; one dose 10 μM; read-out: Growth Inhibition Percentage (GI %)
DU-145 = assay: NCI-60 anticancer screening (SRB); assay type: cell-based; conditions: Homo sapiens; DU-145, prostate cancer; one dose 10 μM; read-out: Growth Inhibition Percentage (GI %)
MDA-MB-231 = assay: NCI-60 anticancer screening (SRB); assay type: cell-based; conditions: Homo sapiens; MDA-MB-231, breast cancer; one dose 10 μM; read-out: Growth Inhibition Percentage (GI %)
T-47D = assay: NCI-60 anticancer screening (SRB); assay type: cell-based; conditions: Homo sapiens, T47D, breast cancer, one dose 10 μM, read-out: Growth Inhibition Percentage (GI %)
NCI 60 cancer cell lines = assay: NCI-60 anticancer screening (SRB), whole panel; assay type: cell-based, human; conditions: mean across the NCI-60 panel; one dose 10 μM

SMILES | inhibition at 10 µM (HL-60(TB)) [%] | inhibition at 10 µM (RPMI-8226) [%] | inhibition at 10 µM (A549/ATCC) [%] | inhibition at 10 µM (EKVX) [%] | inhibition at 10 µM (HOP-62) [%] | inhibition at 10 µM (NCI-H322M) [%] | inhibition at 10 µM (NCI-H460) [%] | inhibition at 10 µM (NCI-H522) [%] | inhibition at 10 µM (HCC-2998) [%] | inhibition at 10 µM (HCT-15) [%] | inhibition at 10 µM (HT29) [%] | inhibition at 10 µM (KM 12) [%] | inhibition at 10 µM (SF-268) [%] | inhibition at 10 µM (SF-295) [%] | inhibition at 10 µM (SF-539) [%] | inhibition at 10 µM (SNB-19) [%] | inhibition at 10 µM (SNB-75) [%] | inhibition at 10 µM (M14) [%] | inhibition at 10 µM (MDA-MB-435) [%] | inhibition at 10 µM (SK-MEL-28) [%] | other results
CCOC(=O)C1=C(N)N(c2ccc(Cl)cc2)C2=C(C(=O)CC(C)(C)C2)C1c1ccccn1 (racemic) [12c, (±)-Ethyl 2-amino-1–(4-chlorophenyl)-7,7-dimethyl-5-oxo-4-(pyridine-2-yl)-1,4,5,6,7,8-hexahydroquinoline-3-carboxylate] | < 10 | < 10 | < 10 | < 10 | < 10 | < 10 | < 10 | 11 | < 10 | 12 | 22 | < 10 | < 10 | < 10 | < 10 | < 10 | < 10 | < 10 | < 10 | < 10 | inhibition at 10 µM (SK-MEL-5): 13%; inhibition at 10 µM (UACC-62): 25%; inhibition at 10 µM (NCI/ADR-RES): < 10%; inhibition at 10 µM (786-0): < 10%; inhibition at 10 µM (CAKI-1): 11%; inhibition at 10 µM (RXF 393): < 10%; inhibition at 10 µM (SN 12C): < 10%; inhibition at 10 µM (TK-10): < 10%; inhibition at 10 µM (DU-145): < 10%; inhibition at 10 µM (MDA-MB-231): < 10%; inhibition at 10 µM (T-47D): < 10%; GI % mean (NCI 60 cancer cell lines): - ((-) = GI % mean less than 10)
CCOC(=O)C1=C(N)N(c2ccc(Cl)cc2)C2=C(C(=O)CC(C)(C)C2)C1c1ccc(Cl)cc1 (racemic) [8e, (±)-Ethyl 2-amino-1,4-bis (4-chlorophenyl)-7,7-dimethyl-5-oxo-1,4,5,6,7,8-hexahydroquinoline-3-carboxylate] | 62 | 90 | 62 | 33 | < 10 | < 10 | 59 | 19 | 11 | 58 | 46 | 38 | 22 | 33 | 26 | 31 | 27 | 49 | 54 | 26 | inhibition at 10 µM (SK-MEL-5): 46%; inhibition at 10 µM (UACC-62): 28%; inhibition at 10 µM (NCI/ADR-RES): 32%; inhibition at 10 µM (786-0): 23%; inhibition at 10 µM (CAKI-1): 19%; inhibition at 10 µM (RXF 393): 35%; inhibition at 10 µM (SN 12C): < 10%; inhibition at 10 µM (TK-10): 11%; inhibition at 10 µM (DU-145): 12%; inhibition at 10 µM (MDA-MB-231): 24%; inhibition at 10 µM (T-47D): 42%; GI % mean (NCI 60 cancer cell lines): 32%
CCOC(=O)C1=C(N)N(c2ccc(Cl)cc2)C2=C(C(=O)CC(C)(C)C2)C1c1ccc(F)cc1 (racemic) [8b, (±)-Ethyl 2-amino-1–(4-chlorophenyl)-4–(4-fluoroyphenyl)-7,7-dimethyl-5-oxo-1,4,5,6,7,8-hexahydroquinoline-3-carboxylate] | 32 | < 10 | 12 | 25 | < 10 | < 10 | < 10 | 40 | < 10 | 34 | 39 | < 10 | < 10 | 12 | < 10 | 22 | < 10 | 14 | 11 | < 10 | inhibition at 10 µM (SK-MEL-5): 29%; inhibition at 10 µM (UACC-62): 40%; inhibition at 10 µM (NCI/ADR-RES): 12%; inhibition at 10 µM (786-0): 20%; inhibition at 10 µM (CAKI-1): 26%; inhibition at 10 µM (RXF 393): 17%; inhibition at 10 µM (SN 12C): < 10%; inhibition at 10 µM (TK-10): < 10%; inhibition at 10 µM (DU-145): < 10%; inhibition at 10 µM (MDA-MB-231): 19%; inhibition at 10 µM (T-47D): 27%; GI % mean (NCI 60 cancer cell lines): 14%
CCOC(=O)C1=C(N)N(c2ccc(Cl)cc2)C2=C(C(=O)CC(C)(C)C2)C1c1ccc(Cl)cc1Cl (racemic) [10d, (±)-Ethyl 2-amino-1–(4-chorophenyl)-4–(2,4-dichlorophenyl)-7,7-dimethyl-5-oxo-1-phenyl-1,4,5,6,7,8-hexahydroquinoline-3-carboxylate] | 79 | 85 | 48 | 71 | 46 | 29 | 49 | 51 | 23 | 65 | 43 | 54 | 27 | 48 | 21 | 46 | 11 | 30 | 42 | 30 | inhibition at 10 µM (SK-MEL-5): 51%; inhibition at 10 µM (UACC-62): 45%; inhibition at 10 µM (NCI/ADR-RES): 47%; inhibition at 10 µM (786-0): 31%; inhibition at 10 µM (CAKI-1): 54%; inhibition at 10 µM (RXF 393): 38%; inhibition at 10 µM (SN 12C): 47%; inhibition at 10 µM (TK-10): 30%; inhibition at 10 µM (DU-145): 23%; inhibition at 10 µM (MDA-MB-231): 42%; inhibition at 10 µM (T-47D): 74%; GI % mean (NCI 60 cancer cell lines): 48%
